Measurements published in patent US20070078085A1, “Methods and compositions for the utilization and targeting of osteomimicry” (priority 2004, published 2007).

Experiments:
hOC promoter = experiment: hOC promoter-luciferase reporter activity in transfected cells; assay type: cell-based, human; settings: C4-2B cells
Excerpt: Plasmid Construction. Genomic DNA was used in the PCR of the 0.8-kb hOC promoter inserting KpnI and XhoI sites, subsequently cloned into pGL3-Basic-luciferase reporter vector (Promega, Madison, Wis.) as described before (9). The deletion constructs, ΔA [374 bp upstream of AP1/VDRE (AV) element], ΔTst-1 (POU-factor Tst-1/Oct-6 binding site), ΔCRE (cAMP-responsive element) and ΔIRF-1 (interferon regulatory factor-i binding site) in hOC promoter/pGL3 were generated by recombinant PCR technique. The point mutation plasmids in CRE (from -643 to -636 in hOC promoter, 5′-[…]-3′) were constructed with a QuikChange Site-Directed Mutagenesis Kit (Stratagene). The mutation constructs (see below) are one-point substitution mutants, Mut1 (-642 G→T), Mut2 (-641 A→C), Mut3 (-640 C→A), Mut4 (-639 C→A) and Mut5 (-638 T→G), a two-point substitution mutant, Mut6 (-640 and -639 CC→AA), and a two-point deletion construct, Mut7 (-640 and -639 CC→XX). The 1.5-kb hBSP promoter construct prepared in the pGL3-luciferase reporter vector has been described previously (36). The single deletion constructs ΔCRE1 (-79 to -72) and ΔCRE2 (-674 to -667), and a double deletion construct ΔCRE2/CRE1 in the hBSP promoter/pGL3-luciferase plasmid were generated by recombinant PCR technique. All plasmid constructs were confirmed by DNA sequencing.
Transfection and Luciferase Activity Assay. Cells were trypsinized and seeded at a density of 1.5×10^5 cells/well (LNCaP, C4-2B, DU145 and ARCaP) and 1.0×10^5 cells/well (PC3 and MG63) in 12-well plates 24 h before transfection. Plasmid DNAs were introduced into cells by complexing with a commercial reagent DOTAP (Roche Molecular Biochemicals) according to the manufacturer's protocol. Each transfection reaction contained 1.25 μg of tested DNA constructs and 0.25 μg of the transfection efficiency control CMV promoter-driven β-galactosidase plasmid DNA. After 6 h transfection, DNA-liposome mixtures were replaced by fresh T-medium or CM. Tansfected cells were harvested and lysed in 1× Reporter Lysis buffer (Promega) after 36 h additional incubation. Cell lysates were vortexed for 15 s and spun for 10 min. For luciferase activity assay, 20 μl of the lysate supernatant was mixed with 100 μl of the luciferase substrate (Promega) and detected by a luminometer (Monolight 3010, luminometer PharMingen, San Diego, Calif.). For β-galactosidase activity assay, 100 μl of the supernatant was mixed with 100 μl of 2×β-galactosidase substrate [200 mM sodium phosphate buffer, pH 7.3, 2 mM MgCl2, 100 mM β-mercaptoethanol and 1.33 mg/ml o-nitrophenyl-β-D-galactopyranoside (ONPG)], and incubated at 37° C. for 30 min. β-galactosidase activity was detected by Microplate spectrophotometer (Molecular Devices Corp., Sunnyvale, Calif.) at 405 nm wavelength. Data were presented as normalized luciferase activity (means±standard deviations), defined as luciferase activity normalized to internal control β-galactosidase activity for transfection efficiency. All studies were performed in three independent experiments with duplicate assays.

hBSP promoter = experiment: hBSP promoter-luciferase reporter activity in transfected cells; assay type: cell-based, human; settings: C4-2B cells; H-89 10^−8 to 10^−6 M for 2 h, then FSK 10^−6 M 16 h; concentration-dependent
Excerpt: Plasmid Construction. Genomic DNA was used in the PCR of the 0.8-kb hOC promoter inserting KpnI and XhoI sites, subsequently cloned into pGL3-Basic-luciferase reporter vector (Promega, Madison, Wis.) as described before (9). The deletion constructs, ΔA [374 bp upstream of AP1/VDRE (AV) element], ΔTst-1 (POU-factor Tst-1/Oct-6 binding site), ΔCRE (cAMP-responsive element) and ΔIRF-1 (interferon regulatory factor-i binding site) in hOC promoter/pGL3 were generated by recombinant PCR technique. The point mutation plasmids in CRE (from -643 to -636 in hOC promoter, 5′-[…]-3′) were constructed with a QuikChange Site-Directed Mutagenesis Kit (Stratagene). […]
Transfection and Luciferase Activity Assay. […] For luciferase activity assay, 20 μl of the lysate supernatant was mixed with 100 μl of the luciferase substrate (Promega) and detected by a luminometer (Monolight 3010, luminometer PharMingen, San Diego, Calif.). For β-galactosidase activity assay, 100 μl of the supernatant was mixed with 100 μl of 2×β-galactosidase substrate [200 mM sodium phosphate buffer, pH 7.3, 2 mM MgCl2, 100 mM β-mercaptoethanol and 1.33 mg/ml o-nitrophenyl-β-D-galactopyranoside (ONPG)], and incubated at 37° C. for 30 min. β-galactosidase activity was detected by Microplate spectrophotometer (Molecular Devices Corp., Sunnyvale, Calif.) at 405 nm wavelength. […]

O=S(=O)(NCCNCC=Cc1ccc(Br)cc1)c1cccc2cnccc12 [H-89, N-[2-(p-bromocinnamylamino)ethyl]-5-isoquinolinesulfonamide]
ARCaP CM-mediated activation of hOC promoter activity (hOC promoter; H-89 10^−6 M 2 h, then ARCaP CM 15 μg/ml 16 h): inhibited | PMA-induced hOC promoter activation (hOC promoter; H-89 10^−6 M 2 h, then PMA 10^−6 M 16 h): not blocked | db cAMP-mediated activation of hOC promoter activity (hOC promoter; H-89 10^−6 M 2 h, then db cAMP 10^−3 M 16 h): inhibited | CM-induced hOC promoter activity (hOC promoter; H-89 10^−6 M, CM harvested from C4-2B, DU145, PC3 and MG63 cell lines): nearly abolished | FSK-stimulated hOC promoter activity (hOC promoter; H-89 10^−8 to 10^−6 M for 2 h, then FSK 10^−6 M 16 h, concentration-dependent): inhibited | FSK-stimulated hBSP promoter activity (hBSP promoter): inhibited
